In brackets after ≈: the same amount, converted by molar mass. Activity calls are given as the source filed them. The rule behind the calls is not given here.
Legend:
[1] = Growth inhibition of human PANC1 cells after 72 hrs by CCK-8 assay; type: functional, cell-based; details: PANC-1, 72 h
[2] = biological target: Serine/threonine-protein kinase pim-3 (Homo sapiens, UniProt Q86V86); assay: Inhibition of PIM3 (unknown origin) using FL-Peptide 1 (5-FAM-AKRRRLSSLRA-COOH) substrate incubated for 2 hrs by electrophoretic mobility shift assay
CYP1A2 = biological target: T1, CYP1A2 (Homo sapiens, UniProt P05177); assay: Inhibition of CYP1A2 (unknown origin) at 10 uM; type: ADME
T1 sequence (P05177 whole entry): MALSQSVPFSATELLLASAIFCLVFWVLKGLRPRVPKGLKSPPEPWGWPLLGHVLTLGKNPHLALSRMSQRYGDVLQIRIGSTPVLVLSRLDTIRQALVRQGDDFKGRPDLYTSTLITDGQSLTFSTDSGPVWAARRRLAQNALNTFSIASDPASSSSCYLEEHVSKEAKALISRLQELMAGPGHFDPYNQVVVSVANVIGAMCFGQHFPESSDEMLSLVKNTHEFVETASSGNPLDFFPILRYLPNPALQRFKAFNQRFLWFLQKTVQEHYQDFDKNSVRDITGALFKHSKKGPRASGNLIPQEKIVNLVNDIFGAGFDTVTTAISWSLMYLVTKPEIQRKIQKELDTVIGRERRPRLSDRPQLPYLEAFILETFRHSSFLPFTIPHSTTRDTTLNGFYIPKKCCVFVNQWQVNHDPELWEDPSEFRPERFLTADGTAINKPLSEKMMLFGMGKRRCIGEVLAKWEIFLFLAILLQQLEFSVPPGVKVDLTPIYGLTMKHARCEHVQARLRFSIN

hERG (KCNH2) = hERG (KCNH2) (Homo sapiens, UniProt Q12809); assay: Inhibition of human ERG at 10 uM by patch-clamp method
Chain of hERG (KCNH2) (Q12809 whole entry): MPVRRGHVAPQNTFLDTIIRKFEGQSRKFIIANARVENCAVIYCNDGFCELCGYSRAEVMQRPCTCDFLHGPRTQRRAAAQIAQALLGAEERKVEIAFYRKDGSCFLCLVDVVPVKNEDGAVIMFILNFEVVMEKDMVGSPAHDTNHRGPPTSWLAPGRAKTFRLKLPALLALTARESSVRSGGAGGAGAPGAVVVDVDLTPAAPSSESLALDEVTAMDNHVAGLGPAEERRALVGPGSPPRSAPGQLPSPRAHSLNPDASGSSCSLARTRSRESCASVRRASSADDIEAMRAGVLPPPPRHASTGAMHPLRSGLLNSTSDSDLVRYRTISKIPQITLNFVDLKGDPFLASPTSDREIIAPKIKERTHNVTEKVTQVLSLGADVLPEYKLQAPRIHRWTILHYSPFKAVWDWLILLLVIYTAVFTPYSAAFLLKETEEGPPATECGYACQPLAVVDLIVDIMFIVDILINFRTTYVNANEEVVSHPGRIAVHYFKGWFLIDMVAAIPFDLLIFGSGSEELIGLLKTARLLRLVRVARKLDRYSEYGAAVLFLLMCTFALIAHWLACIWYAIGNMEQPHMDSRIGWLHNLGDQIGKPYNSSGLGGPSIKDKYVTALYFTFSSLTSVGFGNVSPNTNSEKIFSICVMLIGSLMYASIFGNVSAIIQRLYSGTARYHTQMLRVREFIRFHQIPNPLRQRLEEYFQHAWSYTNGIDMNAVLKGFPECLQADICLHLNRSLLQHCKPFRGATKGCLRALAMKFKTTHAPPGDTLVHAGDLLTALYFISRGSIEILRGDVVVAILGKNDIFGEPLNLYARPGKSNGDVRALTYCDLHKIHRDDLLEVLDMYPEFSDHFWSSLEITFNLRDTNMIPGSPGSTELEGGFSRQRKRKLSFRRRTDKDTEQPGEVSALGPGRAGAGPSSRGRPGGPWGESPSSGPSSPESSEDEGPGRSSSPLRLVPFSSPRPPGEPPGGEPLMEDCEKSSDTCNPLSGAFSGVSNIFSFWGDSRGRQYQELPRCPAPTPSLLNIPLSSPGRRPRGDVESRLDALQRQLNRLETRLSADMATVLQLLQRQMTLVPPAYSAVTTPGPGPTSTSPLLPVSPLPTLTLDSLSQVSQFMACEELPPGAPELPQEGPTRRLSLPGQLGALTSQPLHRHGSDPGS

CYP2D6 = CYP2D6 (Homo sapiens, UniProt P10635); assay: Inhibition of CYP2D6 (unknown origin) at 10 uM; type: ADME
Chain of CYP2D6 (P10635 whole entry): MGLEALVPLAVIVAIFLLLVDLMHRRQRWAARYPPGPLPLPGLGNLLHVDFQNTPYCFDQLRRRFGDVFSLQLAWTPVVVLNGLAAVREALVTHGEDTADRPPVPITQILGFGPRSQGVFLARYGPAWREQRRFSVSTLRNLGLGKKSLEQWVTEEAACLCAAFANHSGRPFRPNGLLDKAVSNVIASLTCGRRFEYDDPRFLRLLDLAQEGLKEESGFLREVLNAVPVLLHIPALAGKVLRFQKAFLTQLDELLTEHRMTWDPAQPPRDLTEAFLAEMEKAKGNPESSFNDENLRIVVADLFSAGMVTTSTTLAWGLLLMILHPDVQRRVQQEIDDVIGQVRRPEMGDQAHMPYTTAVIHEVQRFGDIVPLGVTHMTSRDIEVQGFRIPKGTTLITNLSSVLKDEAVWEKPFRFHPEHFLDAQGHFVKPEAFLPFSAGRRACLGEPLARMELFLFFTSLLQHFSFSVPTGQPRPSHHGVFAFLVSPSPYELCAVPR

CYP3A4 = CYP3A4 (Homo sapiens, UniProt P08684); assay: Inhibition of CYP3A4 (unknown origin) at 10 uM; type: ADME
Chain of CYP3A4 (P08684 whole entry): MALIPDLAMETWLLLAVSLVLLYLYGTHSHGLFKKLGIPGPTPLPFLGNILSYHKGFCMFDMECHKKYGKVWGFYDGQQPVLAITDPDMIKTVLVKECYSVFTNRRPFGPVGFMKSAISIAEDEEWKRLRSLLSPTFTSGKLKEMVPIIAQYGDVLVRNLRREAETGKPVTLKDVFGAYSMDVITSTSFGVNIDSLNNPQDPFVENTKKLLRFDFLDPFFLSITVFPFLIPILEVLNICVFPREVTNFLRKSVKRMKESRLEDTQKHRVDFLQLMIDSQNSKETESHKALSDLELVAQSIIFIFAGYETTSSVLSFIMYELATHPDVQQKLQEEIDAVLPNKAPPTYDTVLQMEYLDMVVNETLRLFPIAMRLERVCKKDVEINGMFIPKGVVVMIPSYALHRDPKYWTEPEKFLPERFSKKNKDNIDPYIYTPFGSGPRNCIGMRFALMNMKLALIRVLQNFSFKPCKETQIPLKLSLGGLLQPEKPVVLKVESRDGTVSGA

CYP2C9 = CYP2C9 (Homo sapiens, UniProt P11712); assay: Inhibition of CYP2C9 (unknown origin) at 10 uM; type: ADME
Chain of CYP2C9 (P11712 whole entry): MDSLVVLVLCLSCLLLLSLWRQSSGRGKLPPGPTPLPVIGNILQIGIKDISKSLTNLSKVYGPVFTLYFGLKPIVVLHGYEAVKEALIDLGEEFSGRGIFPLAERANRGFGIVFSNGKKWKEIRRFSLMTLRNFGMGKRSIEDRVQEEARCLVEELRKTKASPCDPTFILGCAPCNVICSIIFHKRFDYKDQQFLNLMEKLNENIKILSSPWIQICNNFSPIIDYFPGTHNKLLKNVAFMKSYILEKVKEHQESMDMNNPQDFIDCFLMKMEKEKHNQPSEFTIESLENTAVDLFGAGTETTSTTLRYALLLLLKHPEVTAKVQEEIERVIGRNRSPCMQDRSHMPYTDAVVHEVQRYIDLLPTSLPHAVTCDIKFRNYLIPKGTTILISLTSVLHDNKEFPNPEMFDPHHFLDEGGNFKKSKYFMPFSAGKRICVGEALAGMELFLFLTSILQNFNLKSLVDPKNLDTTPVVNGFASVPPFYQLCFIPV

[3] = Aqueous solubility in PBS buffer solution at pH 7.4; type: physicochemical
CYP2C19 = CYP2C19 (Homo sapiens, UniProt P33261); assay: Inhibition of CYP2C19 (unknown origin) at 10 uM; type: ADME
Chain of CYP2C19 (P33261 whole entry): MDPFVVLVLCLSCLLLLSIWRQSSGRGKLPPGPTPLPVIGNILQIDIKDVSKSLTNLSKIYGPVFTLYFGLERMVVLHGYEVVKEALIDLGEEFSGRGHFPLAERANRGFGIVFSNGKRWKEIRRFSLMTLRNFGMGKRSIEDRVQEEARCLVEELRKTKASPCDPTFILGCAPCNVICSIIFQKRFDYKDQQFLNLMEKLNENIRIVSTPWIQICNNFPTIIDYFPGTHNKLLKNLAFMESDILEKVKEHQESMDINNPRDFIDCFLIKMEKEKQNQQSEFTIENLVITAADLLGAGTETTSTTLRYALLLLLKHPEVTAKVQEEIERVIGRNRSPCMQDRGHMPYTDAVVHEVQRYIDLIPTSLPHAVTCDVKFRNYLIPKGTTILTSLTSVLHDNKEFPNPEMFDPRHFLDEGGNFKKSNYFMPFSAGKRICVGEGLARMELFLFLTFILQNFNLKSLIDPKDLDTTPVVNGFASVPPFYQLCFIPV

[4] = Growth inhibition of human PCI66 cells after 72 hrs by CCK-8 assay; type: functional, cell-based; details: PCI66, 72 h
[5] = Growth inhibition of human PCI35 cells after 72 hrs by CCK-8 assay; type: functional, cell-based; details: PCI35, 72 h
[6] = Growth inhibition of human MIAPaCa2 cells at 10 uM after 72 hrs by CCK-8 assay; type: functional; details: MIA PaCa-2, 72 h, read-out: GI
[7] = Growth inhibition of human PCI66 cells at 10 uM after 72 hrs by CCK-8 assay; type: functional; details: PCI66, 72 h, read-out: GI
[8] = Growth inhibition of human MIAPaCa2 cells after 72 hrs by CCK-8 assay; type: functional, cell-based; details: MIA PaCa-2, 72 h
[9] = Growth inhibition of human L3.6PL cells after 72 hrs by CCK-8 assay; type: functional
[10] = biological target: Receptor-type tyrosine-protein kinase FLT3 (Homo sapiens) (UniProt P36888); assay: Inhibition of FLT3 (unknown origin) at 200 nM by electrophoretic mobility shift assay
Chain of Receptor-type tyrosine-protein kinase FLT3 (Homo sapiens) (P36888 whole entry): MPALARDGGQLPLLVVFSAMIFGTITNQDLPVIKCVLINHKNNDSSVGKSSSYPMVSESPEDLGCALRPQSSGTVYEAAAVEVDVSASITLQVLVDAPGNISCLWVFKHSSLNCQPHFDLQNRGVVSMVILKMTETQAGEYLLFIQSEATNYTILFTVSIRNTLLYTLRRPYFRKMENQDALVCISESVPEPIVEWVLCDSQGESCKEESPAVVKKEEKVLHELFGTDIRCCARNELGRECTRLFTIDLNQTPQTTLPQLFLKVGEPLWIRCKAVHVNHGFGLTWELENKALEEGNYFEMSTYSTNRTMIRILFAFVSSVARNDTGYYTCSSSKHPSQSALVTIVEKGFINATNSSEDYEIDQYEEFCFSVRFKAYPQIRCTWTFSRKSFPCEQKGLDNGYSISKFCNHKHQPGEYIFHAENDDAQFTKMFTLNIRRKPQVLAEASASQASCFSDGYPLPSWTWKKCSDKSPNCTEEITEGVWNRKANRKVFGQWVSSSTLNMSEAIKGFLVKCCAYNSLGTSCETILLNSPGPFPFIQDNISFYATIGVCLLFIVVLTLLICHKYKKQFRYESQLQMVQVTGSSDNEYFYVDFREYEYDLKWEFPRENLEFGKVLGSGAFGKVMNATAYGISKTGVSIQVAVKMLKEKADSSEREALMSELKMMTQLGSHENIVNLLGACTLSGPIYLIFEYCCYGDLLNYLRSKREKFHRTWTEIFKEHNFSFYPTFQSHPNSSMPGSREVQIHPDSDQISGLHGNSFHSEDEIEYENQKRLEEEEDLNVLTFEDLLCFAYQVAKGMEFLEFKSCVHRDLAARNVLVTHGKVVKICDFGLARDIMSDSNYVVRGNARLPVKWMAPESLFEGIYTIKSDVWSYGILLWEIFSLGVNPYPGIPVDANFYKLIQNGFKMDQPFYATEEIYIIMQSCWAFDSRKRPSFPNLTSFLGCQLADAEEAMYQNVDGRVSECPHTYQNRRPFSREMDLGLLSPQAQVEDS

[11] = biological target: Serine/threonine-protein kinase pim-2 (Homo sapiens, UniProt Q9P1W9); assay: Inhibition of PIM2 (unknown origin) by electrophoretic mobility shift assay
Chain of Serine/threonine-protein kinase pim-2 (Q9P1W9 whole entry): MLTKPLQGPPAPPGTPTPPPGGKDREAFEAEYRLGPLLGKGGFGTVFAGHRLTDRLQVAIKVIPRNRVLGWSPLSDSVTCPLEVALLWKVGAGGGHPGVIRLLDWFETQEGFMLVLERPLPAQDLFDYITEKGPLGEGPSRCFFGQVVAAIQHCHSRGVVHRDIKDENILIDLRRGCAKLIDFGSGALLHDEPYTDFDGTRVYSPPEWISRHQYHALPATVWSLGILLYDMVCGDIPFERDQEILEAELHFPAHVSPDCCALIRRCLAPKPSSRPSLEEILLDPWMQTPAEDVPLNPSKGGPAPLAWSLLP

Compound | IC50 [2] [µM] | IC50 [1] [µM] | further results
COc1ccc2c(c1CN1CCNCC1)O/C(=C\c1c[nH]c3cnccc13)C2=O | 0.044 | > 10 | –
COc1ccc2c(c1CN1CCNCC1)O/C(=C\c1c[nH]c3ccncc13)C2=O | 0.13 | > 10 | –
C#Cc1cccc(Nc2ncnc3cc(OCCOC)c(OCCOC)cc23)c1 [ERLOTINIB] | – | 3.1 | IC50 [4]: > 10 µM; IC50 [5]: 7.7 µM; inhibition of growth at 10 µM [6]: < 1%; inhibition of growth at 10 µM [7]: 12%; IC50 [8]: > 10 µM; IC50 [9]: 4 µM
COc1ccc2c(c1CN1CCNCC1)O/C(=C\c1c[nH]c3cccnc13)C2=O | > 2 | > 10 | –
COc1ccc2c(c1CN1CCNCC1)O/C(=C\c1n[nH]c3ccccc13)C2=O | 0.025 | > 10 | IC50 [4]: > 10 µM; inhibition [10]: Active; IC50 [5]: > 10 µM; inhibition at 10 µM (CYP2C9): < 1%; IC50 [11]: > 1 µM; IC50 [8]: > 10 µM; solubility [3]: 187 µM (≈ 73 µg/mL); IC50 [9]: > 10 µM

Continued by falling IC50 [2], values first:

IC50 [2] [µM] | Compound | IC50 [1] [µM] | further results
0.018 | COc1ccc2c(c1CN1CCNC[C@H]1C)O/C(=C\c1n[nH]c3ncccc13)C2=O | > 10 | –
0.0064 | CC(c1c(OCCO)ccc2c1O/C(=C\c1n[nH]c3ncccc13)C2=O)N1CCNCC1 (centres undefined) | > 10 | –
0.004 | COc1ccc2c(c1CN1CCN[C@H](C)C1)O/C(=C\c1n[nH]c3ncccc13)C2=O | 8.4 | –
0.003 | COCCOc1ccc2c(c1C(C)N1CCNCC1)O/C(=C\c1n[nH]c3ncccc13)C2=O (centres undefined) | 3.3 | inhibition at 10 µM (CYP1A2): < 1%; inhibition at 10 µM (hERG (KCNH2)): 16%; inhibition at 10 µM (CYP2D6): 83%; inhibition at 10 µM (CYP3A4): < 1%; inhibition at 10 µM (CYP2C9): < 1%; solubility [3]: 196 µM (≈ 88.1 µg/mL); inhibition at 10 µM (CYP2C19): < 1%
0.0013 | COc1ccc2c(c1CN1CCNCC1)O/C(=C\c1c[nH]c3ncccc13)C2=O | 5.2 | –
0.0011 | COc1ccc2c(c1CN1CCNC[C@@H]1C)O/C(=C\c1n[nH]c3ncccc13)C2=O | > 10 | –
0.0008 | COc1ccc2c(c1CN1CCN[C@@H](C)C1)O/C(=C\c1n[nH]c3ncccc13)C2=O | 6.9 | –

From ChEMBL document CHEMBL3734671, “Design and synthesis of an in vivo-efficacious PIM3 kinase inhibitor as a candidate anti-pancreatic cancer agent” (Bioorg Med Chem Lett, 2015)
